From US11629171B2, “Beta-hairpin peptidomimetics” (POLYPHOR AG, priority 2017, dated 2023)
In brackets after ≈: the same amount, converted by molar mass. Where a SMILES comes first, the peptide text is derived from it. Bridges are numbered along the chain shown (N, C = ends). Roman numbers before positions name the chains, in order. [ ]: non-standard residue; d: D form. Thr(ol) = C[C@@H](O)[C@H](N)CO; Pen = CC(C)(S)[C@H](N)C(=O)O; Tle = CC(C)(C)[C@H](N)C(=O)O; NMeV = CN[C@H](C(=O)O)C(C)C; Hiv = CC(C)[C@H](O)C(=O)O; dDab = NCC[C@@H](N)C(=O)O; hSer = N[C@@H](CCO)C(=O)O; Orn = NCCC[C@H](N)C(=O)O; Dab = NCC[C@H](N)C(=O)O; Dap = NC[C@H](N)C(=O)O

What was measured:
Assay type in all cases: cell-based
[1] = system: human red blood cells (hRBC); test: Hemolysis; conditions: red cells of human, 1 h, 200
Procedure, shortened: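 Percent lysis of human red cells was derived from OD540 of the supernatant, referenced to 2% Triton X-100, after a 1 h, 37° C incubation of 20% (v/v) cells with 200 μg/mL peptide.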

[2] = system: Acinetobacter baumannii DSM 30008; conditions: DSM 30008
Procedure, shortened: (§1)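 Cation-adjusted MH-II broth, 0.002% polysorbate 80, inoculum near 10^6 CFU/mL. MIC read visually after 18-20 h, 35° C; units μg/mL.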

[3] = system: Klebsiella pneumoniae 968733; conditions: 968733
Procedure, shortened: as §1

[4] = system: Pseudomonas aeruginosa ATCC 27853; conditions: ATCC 27853
Procedure, shortened: as §1

Escherichia coli 926415 = conditions: 926415
Procedure, shortened: as §1

[5] = system: Enterobacter cloacae 848840; conditions: 848840
Procedure, shortened: as §1

[6] = system: Acinetobacter baumannii 872842; conditions: 872842
Procedure, shortened: as §1

[7] = system: Klebsiella pneumoniae SSI #3010; conditions: SSI #3010
Procedure, shortened: as §1

[8] = system: Escherichia coli ATCC 25922; conditions: ATCC 25922
Procedure, shortened: as §1

Row | Acinetobacter baumannii DSM 30008 MIC [2] [µg/mL] | MIC [3] [µg/mL] | Pseudomonas aeruginosa ATCC 27853 MIC [4] [µg/mL] | MIC (Escherichia coli 926415) [µg/mL] | MIC [5] [µg/mL] | MIC [6] [µg/mL] | Klebsiella pneumoniae SSI #3010 MIC [7] [µg/mL] | Escherichia coli ATCC 25922 MIC [8] [µg/mL] | MIC [2] [µg/mL] | MIC [4] [µg/mL] | MIC [7] [µg/mL] | MIC [8] [µg/mL] | Compound | Hemolysis at 200 μg/mL [1] [%]
1 | 0.25 | 1 (≈ 0.425 µM) | 0.125 | 0.5 (≈ 0.212 µM) | 4 (≈ 1.7 µM) | 0.5 (≈ 0.212 µM) | 0.125 | 0.125 | – | – | – | – | CC(=O)N[C@H](C(=O)N[C@H]1CSSC[C@@H](C(=O)N[C@@H](CO)C(N)=O)NC(=O)[C@H](C(C)C)NC(=O)[C@H](CO)NC(=O)[C@H](Cc2c[nH]c3ccccc23)NC(=O)[C@H](CO)NC(=O)[C@@H](CCN)NC(=O)[C@H](CCC(=O)N[C@@H](CCN)C(=O)NCC(=O)N[C@@H](CN)C(=O)N[C@H]2CCNC(=O)[C@H]([C@@H](C)O)NC(=O)[C@H](CCN)NC(=O)[C@H](CCN)NC(=O)[C@H](CC(C)C)NC(=O)[C@@H](CC(C)C)NC(=O)[C@H](CCN)NC2=O)NC(=O)[C@H](CCN)NC(=O)[C@H](Cc2ccc(O)cc2)NC1=O)C(C)C [Ex. 307] (I: Ac-VCY[Dab]E[dDab]SWSVCS-NH2 / II: [Dab]G[Dap][Dab][Dab][dL]L[Dab][Dab]T; disulfide I:2-I:11; amide I:5-II:N; lactam II:4-II:C) | <1
2 | 0.125 | 1 (≈ 0.431 µM) | 0.125 | 0.25 (≈ 0.108 µM) | 0.5 (≈ 0.215 µM) | 0.25 (≈ 0.108 µM) | 0.0625 | 0.0625 | – | – | – | – | CC(C)C[C@@H]1NC(=O)[C@@H](CC(C)C)NC(=O)[C@H](CCN)NC(=O)[C@@H](NC(=O)[C@H](CN)NC(=O)[C@@H](NC(=O)[C@H](CCN)NC(=O)CC[C@@H]2NC(=O)[C@H](CCN)NC(=O)[C@H](Cc3ccc(O)cc3)NC(=O)[C@@H](NC(=O)[C@@H](O)C(C)C)CCNC(=O)C[C@@H](C(=O)N[C@@H](CO)C(N)=O)NC(=O)[C@H](C(C)C)NC(=O)[C@H](CO)NC(=O)[C@H](Cc3c[nH]c4ccccc34)NC(=O)CNC(=O)[C@@H](CCN)NC2=O)[C@@H](C)O)CCNC(=O)[C@H]([C@@H](C)O)NC(=O)[C@H](CCN)NC(=O)[C@H](CCN)NC1=O [Ex. 347] (I: H-[Hiv][Dab]Y[Dab]E[dDab]GWSVDS-NH2 / II: [Dab]T[Dap][Dab][Dab][dL]L[Dab][Dab]T; lactam I:2-I:11, II:4-II:C; amide I:5-II:N) | <1
3 | – | 0.5 (≈ 0.215 µM) | – | 0.5 (≈ 0.215 µM) | 1 (≈ 0.43 µM) | 0.125 (≈ 0.0537 µM) | – | – | 0.0625 (≈ 0.0268 µM) | 0.25 (≈ 0.107 µM) | 0.125 (≈ 0.0537 µM) | 0.125 (≈ 0.0537 µM) | CC(C)C[C@@H]1NC(=O)[C@@H](CC(C)C)NC(=O)[C@H](CCN)NC(=O)[C@@H](NC(=O)[C@H](CN)NC(=O)[C@@H](NC(=O)[C@H](CCN)NC(=O)CC[C@@H]2NC(=O)[C@@H](CCN)NC(=O)CNC(=O)[C@@H](NC(=O)[C@H](Cc3ccc(O)cc3)NC(=O)[C@@H](NC(=O)[C@@H](O)C(C)C)[C@@H](C)O)CSSC[C@@H](C(=O)N[C@H](C(=O)N[C@@H](C)C(=O)N[C@H](CO)[C@@H](C)O)C(C)(C)C)NC(=O)[C@H](Cc3c[nH]c4ccccc34)NC2=O)[C@@H](C)O)CCNC(=O)[C@H]([C@@H](C)O)NC(=O)[C@H](CCN)NC(=O)[C@H](CCN)NC1=O [Ex. 213] (I: H-[Hiv]TYCG[dDab]EWC[Tle]A[Thr(ol)] / II: [Dab]T[Dap][Dab][Dab][dL]L[Dab][Dab]T; disulfide I:4-I:9; amide I:7-II:N; lactam II:4-II:C) | <1

The next lines start with the compound.

Row | Compound | Acinetobacter baumannii DSM 30008 MIC [2] [µg/mL] | MIC [3] [µg/mL] | Pseudomonas aeruginosa ATCC 27853 MIC [4] [µg/mL] | MIC (Escherichia coli 926415) [µg/mL] | MIC [5] [µg/mL] | MIC [6] [µg/mL] | Klebsiella pneumoniae SSI #3010 MIC [7] [µg/mL] | Escherichia coli ATCC 25922 MIC [8] [µg/mL] | MIC [2] [µg/mL] | MIC [4] [µg/mL] | MIC [7] [µg/mL] | MIC [8] [µg/mL] | Hemolysis at 200 μg/mL [1] [%]
4 | CN[C@H](C(=O)N[C@H]1CSSC[C@@H](C(=O)N[C@@H](CO)C(N)=O)NC(=O)[C@H](C(C)(C)C)NC(=O)[C@H](CCO)NC(=O)[C@H](Cc2c[nH]c3ccccc23)NC(=O)[C@H](CCO)NC(=O)[C@@H](CCN)NC(=O)[C@H](CCC(=O)N[C@@H](CCN)C(=O)N[C@H](C(=O)N[C@@H](CCN)C(=O)N[C@H]2CCNC(=O)[C@H]([C@@H](C)O)NC(=O)[C@H](CCN)NC(=O)[C@H](CCN)NC(=O)[C@H](CC(C)C)NC(=O)[C@@H](CC(C)C)NC(=O)[C@H](CCN)NC2=O)[C@@H](C)O)NC(=O)[C@H](CCN)NC(=O)[C@H](Cc2ccc(O)cc2)NC1=O)C(C)C [Ex. 51] (I: H-[NMeV]CY[Dab]E[dDab][hSer]W[hSer][Tle]CS-NH2 / II: [Dab]T[Dab][Dab][Dab][dL]L[Dab][Dab]T; disulfide I:2-I:11; amide I:5-II:N; lactam II:4-II:C) | – | 1 (≈ 0.412 µM) | – | 0.5 (≈ 0.206 µM) | 0.5 (≈ 0.206 µM) | 0.25 (≈ 0.103 µM) | – | – | 0.5 (≈ 0.206 µM) | 0.125 (≈ 0.0515 µM) | 0.125 (≈ 0.0515 µM) | 0.25 (≈ 0.103 µM) | <1
5 | CC(C)C[C@@H]1NC(=O)[C@@H](CC(C)C)NC(=O)[C@H](CCN)NC(=O)[C@@H](NC(=O)[C@H](CCN)NC(=O)[C@@H](NC(=O)[C@H](CCN)NC(=O)CC[C@@H]2NC(=O)[C@H](CCN)NC(=O)[C@H](Cc3ccc(O)cc3)NC(=O)[C@@H](NC(=O)[C@@H](N)C(C)C)CSSC[C@@H](C(=O)N[C@@H](CO)C(N)=O)NC(=O)[C@H](C(C)(C)C)NC(=O)[C@H](CO)NC(=O)[C@H](Cc3c[nH]c4ccccc34)NC(=O)[C@H]([C@@H](C)O)NC(=O)[C@@H](CCN)NC2=O)[C@@H](C)O)CCNC(=O)[C@H]([C@@H](C)O)NC(=O)[C@H](CCN)NC(=O)[C@H](CCN)NC1=O [Ex. 47] (I: H-VCY[Dab]E[dDab]TWS[Tle]CS-NH2 / II: [Dab]T[Dab][Dab][Dab][dL]L[Dab][Dab]T; disulfide I:2-I:11; amide I:5-II:N; lactam II:4-II:C) | – | 1 (≈ 0.417 µM) | – | 0.25 (≈ 0.104 µM) | 4 (≈ 1.67 µM) | 0.125 (≈ 0.0521 µM) | – | – | 0.125 (≈ 0.0521 µM) | 0.125 (≈ 0.0521 µM) | 0.125 (≈ 0.0521 µM) | 0.0625 (≈ 0.0261 µM) | <1
6 | CC(C)C[C@@H]1NC(=O)[C@@H](CC(C)C)NC(=O)[C@H](CCN)NC(=O)[C@@H](NC(=O)[C@H](CCN)NC(=O)[C@@H](NC(=O)[C@H](CCN)NC(=O)CC[C@@H]2NC(=O)[C@H](CCC(=O)O)NC(=O)[C@H](Cc3ccc(O)cc3)NC(=O)[C@@H](NC(=O)[C@@H](O)C(C)C)CSSC[C@@H](C(=O)N[C@H](CO)[C@@H](C)O)NC(=O)[C@H](C(C)(C)C)NC(=O)[C@H](CN)NC(=O)[C@H](Cc3c[nH]c4ccccc34)NC(=O)[C@H]([C@@H](C)O)NC(=O)[C@@H](CCN)NC2=O)[C@@H](C)O)CCNC(=O)[C@H]([C@@H](C)O)NC(=O)[C@H](CCN)NC(=O)[C@H](CCN)NC1=O [Ex. 91] (I: H-[Hiv]CYEE[dDab]TW[Dap][Tle]C[Thr(ol)] / II: [Dab]T[Dab][Dab][Dab][dL]L[Dab][Dab]T; disulfide I:2-I:11; amide I:5-II:N; lactam II:4-II:C) | – | 2 (≈ 0.823 µM) | – | 2 (≈ 0.823 µM) | 1 (≈ 0.412 µM) | 0.5 (≈ 0.206 µM) | – | – | 0.125 (≈ 0.0515 µM) | 0.25 (≈ 0.103 µM) | 0.25 (≈ 0.103 µM) | 0.0625 (≈ 0.0257 µM) | <1
7 | CC(=O)N[C@H](C(=O)N[C@H]1CCCNC(=O)[C@@H]([C@H](C)O)NC(=O)[C@H](C(C)(C)C)NC(=O)[C@H](CO)NC(=O)[C@H](Cc2c[nH]c3ccccc23)NC(=O)[C@H](CO)NC(=O)[C@@H](CCN)NC(=O)[C@H](CCC(=O)N[C@@H](CCN)C(=O)N[C@H](C(=O)N[C@@H](CN)C(=O)N[C@H]2CCNC(=O)[C@H]([C@@H](C)O)NC(=O)[C@H](CCN)NC(=O)[C@H](CCN)NC(=O)[C@H](CC(C)C)NC(=O)[C@@H](CC(C)C)NC(=O)[C@H](CCN)NC2=O)[C@@H](C)O)NC(=O)[C@H](CO)NC(=O)[C@H](Cc2ccc(O)cc2)NC1=O)C(C)C [Ex. 23] (I: Ac-V[Orn]YSE[dDab]SWS[Tle][dT] / II: [Dab]T[Dap][Dab][Dab][dL]L[Dab][Dab]T; lactam I:2-I:C, II:4-II:C; amide I:5-II:N) | – | 0.5 (≈ 0.217 µM) | – | 0.5 (≈ 0.217 µM) | 0.125 (≈ 0.0542 µM) | 0.25 (≈ 0.108 µM) | – | – | 0.0625 (≈ 0.0271 µM) | 0.25 (≈ 0.108 µM) | 0.125 (≈ 0.0542 µM) | 0.0625 (≈ 0.0271 µM) | <1
8 | CC(C)C[C@@H]1NC(=O)[C@@H](CC(C)C)NC(=O)[C@H](CCN)NC(=O)[C@@H](NC(=O)[C@H](CCN)NC(=O)[C@@H](NC(=O)[C@H](CCN)NC(=O)CC[C@@H]2NC(=O)[C@H](CCN)NC(=O)[C@H](Cc3ccc(O)cc3)NC(=O)[C@@H](NC(=O)[C@@H](O)C(C)C)CSSC(C)(C)[C@@H](C(=O)N[C@H](CO)[C@@H](C)O)NC(=O)[C@H](C(C)(C)C)NC(=O)[C@H](CO)NC(=O)[C@H](Cc3c[nH]c4ccccc34)NC(=O)[C@H](CCO)NC(=O)[C@@H](CCN)NC2=O)[C@@H](C)O)CCNC(=O)[C@H]([C@@H](C)O)NC(=O)[C@H](CCN)NC(=O)[C@H](CCN)NC1=O [Ex. 85] (I: H-[Hiv]CY[Dab]E[dDab][hSer]WS[Tle][Pen][Thr(ol)] / II: [Dab]T[Dab][Dab][Dab][dL]L[Dab][Dab]T; disulfide I:2-I:11; amide I:5-II:N; lactam II:4-II:C) | – | 0.25 (≈ 0.103 µM) | – | 0.25 (≈ 0.103 µM) | 0.125 (≈ 0.0515 µM) | 0.25 (≈ 0.103 µM) | – | – | 0.25 (≈ 0.103 µM) | 0.25 (≈ 0.103 µM) | 0.125 (≈ 0.0515 µM) | 0.0625 (≈ 0.0257 µM) | 1
